Measured values from patent US20120045501A1, “CONNEXIN ENHANCES CHEMOTHERAPY-INCLUDED APOPTOSIS IN HUMAN CANCER CELLS INHIBITING TUMOR CELL PROLIFERATION” (Northwest Hospital, priority 2001, published 2012).
Where “and” joins values, the source holds several entries; their conditions need not be identical. Identical values can stand only once.

Legend:
U251N23 cells [1] = assay: MTT cell viability assay; assay type: cell-based; details: Homo sapiens, 144 h, day 6 after treatment, U251N23 (control-transfected)
Procedure: (§1) In vitro viability was determined by the 3-(4,5-dimethylthiazol-2yl)-2,5-diphenyltetrazolium bromide (MTT) colorimetric assay as described in (Huang et al., Cancer Res. 55:5054-5062 (1995)). Cells (1×10^3) were plated in triplicate in 96 well microplates overnight and treated with 5 different concentrations of VP16, Tax and DOX, respectively. […] Absorbance values at 570 nm were plotted as a measure of the relative number of cells. […] Both methods gave the identical results.
(§2) Values at OD 570 reflect the relative number of viable cells.

U251N2 cells = assay: MTT cell viability assay; assay type: cell-based; details: Homo sapiens, 144 h, day 6 after treatment, U251N2 (control-transfected)
Procedure: as §1, §2

T98GN28 cells = assay: MTT cell viability assay; assay type: cell-based; details: Homo sapiens, 144 h, day 6 after treatment, T98GN28 (control-transfected)
Procedure: as §1, §2

T98Gcx43-220 cells = assay: MTT cell viability assay; assay type: cell-based; details: Homo sapiens, 144 h, day 6 after treatment, T98Gcx43-220 (cx43-transfected)
Procedure: as §1, §2

U251cx43-217 cells [2] = assay: MTT cell viability assay; assay type: cell-based; details: Homo sapiens, 144 h, day 6 after treatment, U251cx43-217 (cx43-transfected)
Procedure: as §1, §2

U251N23 cells [3] = assay: Clonogenicity (cell survival) assay; assay type: cell-based, human
Procedure: (§3) The surviving cell fraction was determined by clonogenicity assay as previously described (Huang et al., J. Cell Biol. 133:211-220 (1996)). Cells were seeded at a density of 500 cells per 60 mm plate and incubated overnight and then treated with drugs; culture was then continued for 3 weeks. Clones were fixed in 4% formaldehyde-PBS and stained with Giemsa solution. Colonies containing more than 50 cells were counted and the fraction of surviving cells was calculated. The results represented the average of three separate experiments.
as §2

U251cx43-216 cells [4] = assay: Clonogenicity (cell survival) assay; assay type: cell-based, human
Procedure: as §3, §2

U251N23 cells [5] = assay: Apoptosis, TUNEL assay; assay type: cell-based, human; details: U251N23, 1 μM VP16, D2
Procedure: (§4) Cells (1 to 3×10^5) were seeded onto glass slides in 8-well plates overnight, and then treated with VP16 for 48 hours. Apoptotic cells were then analyzed with a TUNEL-based in situ cell death detection kit (Boehringer-Mannheim, Mannheim, Germany). Fluorescent cells were observed under a fluorescence microscope and viewed as positive cells. The experiment was repeated twice.
(§5) It was next determined whether the enhanced sensitivity to chemotherapeutic agents induced by over-expression of cx43 was associated with the increase of drug-induced apoptosis. Cells collected at various time points post-treatment with 1 μM VP16 were used for apoptosis assays. First, nuclear condensation, chromatin fragmentation and formation of apoptotic bodies were detected by Hoechst 33258 dye staining upon treatment with VP16. […] The results were further confirmed by both 1) TUNEL assay, which detects double- as well as single-stranded DNA breaks during apoptosis by labeling the free 3′-OH termini in an enzymatic reaction (terminal deoxynucleotidyl transferase), and annexin V assay, which detects the exposed phosphotidylserine during apoptosis.

U251cx43-216 cells [6] = assay: Apoptosis, TUNEL assay; assay type: cell-based, human; details: U251cx43-216, 1 μM VP16, D2
Procedure: as §4, §5

U251N23 cells [7] = assay: Apoptosis, Hoechst dye stain; assay type: cell-based, human; details: U251N23, 1 μM VP16, D4
Procedure: The assay was performed as we previously described (Huang et al., Cell Death Differ. 5:96-106 (1998)). Briefly, cells were fixed in Carnoy's solution (methanol:glacial […]; 3:1) and stained with 5 μg/ml of bisbenzimide trihydrochloride (Hoechst 33258) for 20 min. The morphology of nuclei was then observed with a Zeiss (Thornwood, N.Y.) photomicroscope II. At least 500 nuclei in each cell line were counted. Experiments were repeated four times.
as §5

U251N23 cells [8] = assay: Apoptosis, annexin V assay; assay type: cell-based, human
Procedure: (§6) Cells, treated or not VP16, were analyzed with the TACS Annexin V-FITC kit (Trevigen, Gaithersburg, Md.) according to manufacturer's instructions. Apoptosis was detected by the appearance of patches of fluorescence on the cell surface.
as §5

U251cx43-216 cells [9] = assay: Apoptosis, annexin V assay; assay type: cell-based, human
Procedure: as §6, §5

U251cx43-216 cells [10] = assay: MTT cell viability assay
U251N23 cells [11] = assay: Cell-cycle distribution by FACScan; assay type: cell-based, human; details: U251N23, VP16 1 × 10^−6 M
Procedure: (§7) Cell-cycle distribution was determined by flow cytometry as described previously (Huang et al., Int. J. Cancer 77:880-886 (1998)). Briefly, cells were seeded in 100 mm plates (5×10^5 per plate), incubated for 24 hours, and then treated with VP16 or vehicle. At days 1 and 2 of treatment, cells were collected, fixed in 70% ethanol and stained with propidium iodine. The DNA content of cells was then analyzed in a fluorescence cell sorter (FACSCalibur, Becton Dickinson, Mountain View, Calif.).
(§8) The possibility was assessed by treatment of the cells with VP16 for 24 and 48 hours, and cell-cycle distribution was then determined by FACScan. […] Although there was a slight decrease of S phase in cx43-transfected cells compared with control transfected cells at 24 hours after VP16 treatment, it was not statistically significant.

U251cx43-216 cells [12] = assay: Cell-cycle distribution by FACScan; assay type: cell-based, human; details: U251cx43-216, VP16 1 × 10^−6 M
Procedure: as §7, §8

U251cx43-217 cells [13] = assay: Cell-cycle distribution by FACScan; assay type: cell-based, human; details: U251cx43-217, VP16 1 × 10^−6 M
Procedure: as §7, §8

Question: How did the IC50 (U251N23 cells [1]) turn out when COc1cc([C@@H]2c3cc4c(cc3[C@@H](O[C@@H]3O[C@@H]5CO[C@@H](C)O[C@H]5[C@H](O)[C@H]3O)[C@H]3COC(=O)[C@H]23)OCO4)cc(OC)c1O [VP16, Etoposide] was run?
Answer: 860 nM

Question: What about the IC50 (U251N2 cells) of the same molecule?
Answer: 800 nM

Question: And the IC50 (T98GN28 cells)?
Answer: 1340 nM

Question: And the IC50 (T98Gcx43-220 cells)?
Answer: 760 nM

Question: And the IC50 (U251cx43-217 cells [2])?
Answer: 330 nM

Question: What about the “Colony formation (colonies counted)” value (U251N23 cells [3]; U251N23, 1 × 10^−7, 3 weeks) of the same molecule?
Answer: 36 +/− 1

Question: And the “Colony formation (colonies counted)” value (U251N23 cells [3]; U251N23, 4 × 10^−6, 3 weeks)?
Answer: 9 +/− 1

Question: What about the “Colony formation (colonies counted)” value (U251N23 cells [3]; U251N23, 4 × 10^−7, 3 weeks) of the same molecule?
Answer: 129 +/− 16

Question: What about the “Colony formation (colonies counted)” value (U251cx43-216 cells [4]; U251cx43-216, 1 × 10^−7, 3 weeks) of the same molecule?
Answer: 3 +/− 1

Question: What about the “Colony formation (colonies counted)” value (U251cx43-216 cells [4]; U251cx43-216, 4 × 10^−6, 3 weeks) of the same molecule?
Answer: 2 +/− 1

Question: What about the “Colony formation (colonies counted)” value (U251cx43-216 cells [4]; U251cx43-216, 4 × 10^−7, 3 weeks) of the same molecule?
Answer: 44 +/− 5

Question: What about the “Percentage of apoptotic cells, TUNNEL assay” value (U251N23 cells [5]) of the same molecule?
Answer: 1.6 +/− 2.3%

Question: And the “Percentage of apoptotic cells, TUNNEL assay” value (U251cx43-216 cells [6])?
Answer: 13.3 +/− 4.5%

Question: And the “Percentage of apoptotic cells, Hoechst stain” value (U251N23 cells [7])?
Answer: 8.8% and 8.8 +/− 2.4%

Question: And the “Percentage of apoptotic cells, annexin stain” value (shortened to “Percentage … annexin stain”) (U251N23 cells [8]; U251N23, 1 μM VP16, D2)?
Answer: 5.5 +/− 0.7%

Question: What about the “Percentage … annexin stain” value (U251N23 cells [8]; U251N23, 1 μM VP16, D4) of the same molecule?
Answer: 11.5 +/− 2.1%

Question: And the “Percentage … annexin stain” value (U251cx43-216 cells [9]; U251cx43-216, 1 μM VP16, D2)?
Answer: 24.5 +/− 0.7%

Question: What about the “Percentage … annexin stain” value (U251cx43-216 cells [9]; U251cx43-216, 1 μM VP16, D4) of the same molecule?
Answer: 42.0 +/− 5.6%

Question: And the IC50 (U251cx43-216 cells [10]; Homo sapiens, 144 h)?
Answer: 390 nM

Question: What about the “level of toxicity (measured as IC50) in U251cx43-216 relative to U251N23” value (U251cx43-216 cells [10]; MTT assay, higher in cx43-transfected cells) of the same molecule?
Answer: about 2 fold

Question: And the “Cell cycle distribution, G1 phase” value (U251N23 cells [11]; day 1)?
Answer: 7.37%

Question: What about the “Cell cycle distribution, G2 phase” value (U251N23 cells [11]; day 1) of the same molecule?
Answer: 81.49%

Question: What about the “Cell cycle distribution, S phase” value (U251N23 cells [11]; day 1) of the same molecule?
Answer: 11.14%

Question: What about the “Cell cycle distribution, G1 phase” value (U251N23 cells [11]; day 2) of the same molecule?
Answer: 5.78%

Question: What about the “Cell cycle distribution, G2 phase” value (U251N23 cells [11]; day 2) of the same molecule?
Answer: 94.22%

Question: And the “Cell cycle distribution, S phase” value (U251N23 cells [11]; day 2)?
Answer: 0%

Question: And the “Cell cycle distribution, G1 phase” value (U251cx43-216 cells [12]; day 1)?
Answer: 10.95%

Question: What about the “Cell cycle distribution, G2 phase” value (U251cx43-216 cells [12]; day 1) of the same molecule?
Answer: 80.57%

Question: What about the “Cell cycle distribution, S phase” value (U251cx43-216 cells [12]; day 1) of the same molecule?
Answer: 8.48%

Question: What about the “Cell cycle distribution, G1 phase” value (U251cx43-216 cells [12]; day 2) of the same molecule?
Answer: 8.44%

Question: What about the “Cell cycle distribution, G2 phase” value (U251cx43-216 cells [12]; day 2) of the same molecule?
Answer: 90.81%

Question: What about the “Cell cycle distribution, S phase” value (U251cx43-216 cells [12]; day 2) of the same molecule?
Answer: 0.75%

Question: And the “Cell cycle distribution, G1 phase” value (U251cx43-217 cells [13]; day 1)?
Answer: 12.05%

Question: And the “Cell cycle distribution, G2 phase” value (U251cx43-217 cells [13]; day 1)?
Answer: 77.84%

Question: What about the “Cell cycle distribution, S phase” value (U251cx43-217 cells [13]; day 1) of the same molecule?
Answer: 10.11%

Question: And the “Cell cycle distribution, G1 phase” value (U251cx43-217 cells [13]; day 2)?
Answer: 11.39%

Question: What about the “Cell cycle distribution, G2 phase” value (U251cx43-217 cells [13]; day 2) of the same molecule?
Answer: 88.61%

Question: What about the “Cell cycle distribution, S phase” value (U251cx43-217 cells [13]; day 2) of the same molecule?
Answer: 0%
